Positions of bridges follow the written chain, without caps; N, C: chain ends. Non-standard residues stand in square brackets, D forms with d. Residues, ends and D or L forms follow the SMILES beside them. R8 = C=CCCCCCC[C@@](C)(N)C(=O)O; S5 = C=CCCC[C@](C)(N)C(=O)O
Experiments:
[1] = Circular dichroism, α-helicity; format: physicochemical; conditions: CD, TFE/water (1:1), 50 μM peptide, 25 °C, 1 mm cuvette, calculated from [θ]222
Protocol: The linear and stapled peptides were dissolved in the trifluoroethanol (TFE) and water (1 : 1) to a final concentration of 50 μM, respectively. The CD spectra were obtained with 1 mm quartz cuvette on Jasco-815 spectropolarimeter at 25 °C. The measurement parameters were set up as follows: wavelength, 185–260 nm; step resolution, 0.5 nm; speed, 20 nm min^−1. All spectra were converted to a uniform scale of molar ellipticity after background subtraction. The curves were smoothed using standard parameters. The ellipticity in the acquired CD spectra was converted to the molar ellipticity using the equation: [θ] = θ/(10 × c × l), where, [θ] is the Molar ellipticity (deg cm^2. d mol^−1), θ is the observed ellipticity corrected for the buffer at a given wavelength (m deg), c is the molar concentration and l is the path length (cm). The helicity of each peptide was calculated as described in a literature based on the ellipticity of the peptide's spectrum at 222 nm and the number of amino acids in the peptide sequence.
Circular dichroism (CD) spectroscopy was used to investigate the secondary structures of the stapled and template peptides to probe structural changes induced by conformation constraint in a membrane-like milieu, including […] (TFE) and water (1 : 1). […] (Table 1, ESI ^†).

[2] = test system: human normal kidney cell 293 T; assay: MTT toxicity against normal cells, 293T; format: cell-based; conditions: 96 h
Protocol: (§1) Anti-tumor activity was evaluated by the standard MTT assay with a slight modification measuring the median inhibitory concentration (IC50) values.[35] HCT-116 cells, HepG2 cells and A549 cells were plated in triplicate wells into a 96-well plate at 5 × 10^3/well and cultured routinely for 24 h. Cells were incubated with increasing concentrations of hymenochirin-1B and its analogs (0.1–30 μM) and continued to culture with DMEM plus 10% FBS at 37 °C and 5% CO2. After being incubated for 96 h, the absorbance A value was determined by MTT at 540 nm. The untreated HCT-116 cells, HepG2 cells and A549 cells were used as control. Each experiment was performed in duplicate. The inhibitory rate was calculated according to the following formula: inhibitory rate = (a value of the control group − a value of the study group)/a value of the control group × 100%.
(§2) To further research the selectivity of these peptides towards cancer cells over normal cells. The growth-inhibitory activities of peptides were evaluated using the 3-(4,5-dimethylthiazol-2-yl)-2,5-diphenyltetrazolium bromide (MTT) assay against three normal cells,[35] namely, human normal liver cell LO-2, human normal Lung cell BEAS-2 and human normal kidney cell 293 T (Table S2 ^†). The experiments procedure was performed just same as growth inhibition of the peptides against tumor cells. […] It might be due to the higher averaged hydrophobicity produced by six or nine additional methylene and two olefinic carbons to the peptide to increase toxicity to human normal cells. This situation may be resolved through the addition of polar character and glycosylation into the sequence to decrease the averaged hydrophobicity to improve the selectivity of these peptides towards cancer cells over normal cells. These modifications of these peptides are under way, and the present study was focused on the improved anti-tumor activity of template peptide hymenochirin-1B.

[3] = test system: human normal Lung cell BEAS-2; assay: MTT toxicity against normal cells, BEAS-2B; format: cell-based; conditions: 96 h
Protocol: as §1, §2

[4] = test system: human normal liver cell LO-2; assay: MTT toxicity against normal cells, LO-2; format: cell-based; conditions: 96 h
Protocol: as §1, §2

Structure (SMILES): CC[C@H](C)[C@H](N)C(=O)N[C@@H](CCCCN)C(=O)N[C@@H](CC(C)C)C(=O)N[C@@H](CO)C(=O)N1CCC[C@H]1C(=O)N[C@@H](CCC(=O)O)C(=O)N[C@H](C(=O)N[C@@H](CCCCN)C(=O)N[C@@H](CC(=O)O)C(=O)N[C@]1(C)CCCCCCC=CCCC[C@@](C)(C(=O)N[C@@H](C)C(=O)N[C@H](C(=O)N[C@@H](CCCCN)C(=O)NCC(=O)N[C@@H](C)C(=O)N[C@H](C(=O)N[C@@H](C)C(=O)N[C@H](C(=O)N[C@@H](C)C(=O)N[C@@H](CCCCN)C(=O)N[C@@H](CCSC)C(=O)N[C@H](C(N)=O)C(C)C)C(C)C)[C@@H](C)CC)[C@@H](C)CC)NC(=O)[C@H](CCCCN)NC(=O)[C@H](CC(C)C)NC(=O)[C@H](C(C)C)NC(=O)[C@H](CCCCN)NC(=O)[C@H](CCCCN)NC(=O)[C@H](CC(C)C)NC1=O)[C@@H](C)O [H-3] (H-IKLSPETKD[R8]LKKVLK[S5]AIKGAIAVAKMV-NH2; staple 10-17)
- Helicity (%) [1]: 65.7%
- IC50 (μM) 293T, toxicity against normal cells [2]: 4.58 ± 0.34 µM
- IC50 (μM) BEAS-2B, toxicity against normal cells [3]: 7.95 ± 0.36 µM
- IC50 (μM) LO-2, toxicity against normal cells [4]: 7.61 ± 0.43 µM

Structure (SMILES): CC[C@H](C)[C@H](N)C(=O)N[C@@H](CCCCN)C(=O)N[C@@H](CC(C)C)C(=O)N[C@@H](CO)C(=O)N1CCC[C@H]1C(=O)N[C@@H](CCC(=O)O)C(=O)N[C@H](C(=O)N[C@@H](CCCCN)C(=O)N[C@@H](CC(=O)O)C(=O)N[C@@H](CC(N)=O)C(=O)N[C@@H](CC(C)C)C(=O)N[C@@H](CCCCN)C(=O)N[C@@H](CCCCN)C(=O)N[C@H](C(=O)N[C@@H](CC(C)C)C(=O)N[C@@H](CCCCN)C(=O)NCC(=O)N[C@@H](C)C(=O)N[C@H](C(=O)N[C@@H](CCCCN)C(=O)NCC(=O)N[C@@]1(C)CCCC=CCCC[C@@](C)(C(=O)N[C@@H](CCCCN)C(=O)N[C@@H](CCSC)C(=O)N[C@H](C(N)=O)C(C)C)NC(=O)[C@H](C(C)C)NC(=O)[C@H](C)NC(=O)[C@H]([C@@H](C)CC)NC1=O)[C@@H](C)CC)C(C)C)[C@@H](C)O [H-7] (H-IKLSPETKDNLKKVLKGAIKG[S5]IAV[S5]KMV-NH2; staple 22-26)
- Helicity (%) [1]: 65.9%
- IC50 (μM) 293T, toxicity against normal cells [2]: 7.25 ± 0.26 µM
- IC50 (μM) BEAS-2B, toxicity against normal cells [3]: 7.50 ± 0.32 µM
- IC50 (μM) LO-2, toxicity against normal cells [4]: 6.52 ± 0.32 µM

Structure (SMILES): CC[C@H](C)[C@H](N)C(=O)N[C@@H](CCCCN)C(=O)N[C@@H](CC(C)C)C(=O)N[C@@H](CO)C(=O)N1CCC[C@H]1C(=O)N[C@@H](CCC(=O)O)C(=O)N[C@H](C(=O)N[C@@H](CCCCN)C(=O)N[C@@H](CC(=O)O)C(=O)N[C@@H](CC(N)=O)C(=O)N[C@@H](CC(C)C)C(=O)N[C@@H](CCCCN)C(=O)N[C@@H](CCCCN)C(=O)N[C@H](C(=O)N[C@@H](CC(C)C)C(=O)N[C@@H](CCCCN)C(=O)NCC(=O)N[C@@H](C)C(=O)N[C@H](C(=O)N[C@]1(C)CCCCCCC=CCCC[C@@](C)(C(=O)N[C@@H](CCSC)C(=O)N[C@H](C(N)=O)C(C)C)NC(=O)[C@H](C)NC(=O)[C@H](C(C)C)NC(=O)[C@H](C)NC(=O)[C@H]([C@@H](C)CC)NC(=O)[C@H](C)NC(=O)CNC1=O)[C@@H](C)CC)C(C)C)[C@@H](C)O [H-6] (H-IKLSPETKDNLKKVLKGAI[R8]GAIAVA[S5]MV-NH2; staple 20-27)
- Helicity (%) [1]: 64.9%
- IC50 (μM) 293T, toxicity against normal cells [2]: 60.11 ± 0.35 µM
- IC50 (μM) BEAS-2B, toxicity against normal cells [3]: 46.58 ± 0.42 µM
- IC50 (μM) LO-2, toxicity against normal cells [4]: 49.77 ± 0.22 µM

Structure (SMILES): CC[C@H](C)[C@H](N)C(=O)N[C@@H](CCCCN)C(=O)N[C@@H](CC(C)C)C(=O)N[C@@H](CO)C(=O)N1CCC[C@H]1C(=O)N[C@@H](CCC(=O)O)C(=O)N[C@H](C(=O)N[C@@H](CCCCN)C(=O)N[C@@H](CC(=O)O)C(=O)N[C@@H](CC(N)=O)C(=O)N[C@@H](CC(C)C)C(=O)N[C@@H](CCCCN)C(=O)N[C@@H](CCCCN)C(=O)N[C@H](C(=O)N[C@@H](CC(C)C)C(=O)N[C@@H](CCCCN)C(=O)N[C@@]1(C)CCCC=CCCC[C@@](C)(C(=O)N[C@@H](C)C(=O)N[C@H](C(=O)N[C@@H](C)C(=O)N[C@H](C(=O)N[C@@H](C)C(=O)N[C@@H](CCCCN)C(=O)N[C@@H](CCSC)C(=O)N[C@H](C(N)=O)C(C)C)C(C)C)[C@@H](C)CC)NC(=O)[C@H](CCCCN)NC(=O)[C@H]([C@@H](C)CC)NC(=O)[C@H](C)NC1=O)C(C)C)[C@@H](C)O [H-9] (H-IKLSPETKDNLKKVLK[S5]AIK[S5]AIAVAKMV-NH2; staple 17-21)
- IC50 (μM) 293T, toxicity against normal cells [2]: 8.66 ± 0.23 µM
- IC50 (μM) BEAS-2B, toxicity against normal cells [3]: 7.72 ± 0.36 µM
- IC50 (μM) LO-2, toxicity against normal cells [4]: 8.56 ± 0.32 µM

Structure (SMILES): CC[C@H](C)[C@H](N)C(=O)N[C@@H](CCCCN)C(=O)N[C@@H](CC(C)C)C(=O)N[C@@H](CO)C(=O)N[C@@]1(C)CCCC=CCCC[C@@](C)(C(=O)N[C@@H](CC(N)=O)C(=O)N[C@@H](CC(C)C)C(=O)N[C@@H](CCCCN)C(=O)N[C@@H](CCCCN)C(=O)N[C@H](C(=O)N[C@@H](CC(C)C)C(=O)N[C@@H](CCCCN)C(=O)NCC(=O)N[C@@H](C)C(=O)N[C@H](C(=O)N[C@@H](CCCCN)C(=O)NCC(=O)N[C@@H](C)C(=O)N[C@H](C(=O)N[C@@H](C)C(=O)N[C@H](C(=O)N[C@@H](C)C(=O)N[C@@H](CCCCN)C(=O)N[C@@H](CCSC)C(=O)N[C@H](C(N)=O)C(C)C)C(C)C)[C@@H](C)CC)[C@@H](C)CC)C(C)C)NC(=O)[C@H](CCCCN)NC(=O)[C@H]([C@@H](C)O)NC(=O)[C@H](CCC(=O)O)NC1=O [H-1] (H-IKLS[S5]ETK[S5]NLKKVLKGAIKGAIAVAKMV-NH2; staple 5-9)
- Helicity (%) [1]: 49.0%
- IC50 (μM) 293T, toxicity against normal cells [2]: 5.82 ± 0.45 µM
- IC50 (μM) BEAS-2B, toxicity against normal cells [3]: 9.61 ± 0.35 µM
- IC50 (μM) LO-2, toxicity against normal cells [4]: 7.80 ± 0.21 µM

Structure (SMILES): CC[C@H](C)[C@H](N)C(=O)N[C@@H](CCCCN)C(=O)N[C@@H](CC(C)C)C(=O)N[C@@H](CO)C(=O)N1CCC[C@H]1C(=O)N[C@@H](CCC(=O)O)C(=O)N[C@H](C(=O)N[C@@H](CCCCN)C(=O)N[C@@H](CC(=O)O)C(=O)N[C@@H](CC(N)=O)C(=O)N[C@@H](CC(C)C)C(=O)N[C@@H](CCCCN)C(=O)N[C@@H](CCCCN)C(=O)N[C@H](C(=O)N[C@@H](CC(C)C)C(=O)N[C@@H](CCCCN)C(=O)N[C@]1(C)CCCCCCC=CCCC[C@@](C)(C(=O)N[C@H](C(=O)N[C@@H](C)C(=O)N[C@@H](CCCCN)C(=O)N[C@@H](CCSC)C(=O)N[C@H](C(N)=O)C(C)C)C(C)C)NC(=O)[C@H]([C@@H](C)CC)NC(=O)[C@H](C)NC(=O)CNC(=O)[C@H](CCCCN)NC(=O)[C@H]([C@@H](C)CC)NC(=O)[C@H](C)NC1=O)C(C)C)[C@@H](C)O [H-4] (H-IKLSPETKDNLKKVLK[R8]AIKGAI[S5]VAKMV-NH2; staple 17-24)
- Helicity (%) [1]: 66.3%

Structure (SMILES): CC[C@H](C)[C@H](N)C(=O)N[C@@H](CCCCN)C(=O)N[C@@H](CC(C)C)C(=O)N[C@@H](CO)C(=O)N1CCC[C@H]1C(=O)N[C@@H](CCC(=O)O)C(=O)N[C@H](C(=O)N[C@@H](CCCCN)C(=O)N[C@@H](CC(=O)O)C(=O)N[C@@H](CC(N)=O)C(=O)N[C@@H](CC(C)C)C(=O)N[C@@H](CCCCN)C(=O)N[C@@H](CCCCN)C(=O)N[C@H](C(=O)N[C@@H](CC(C)C)C(=O)N[C@@H](CCCCN)C(=O)NCC(=O)N[C@@H](C)C(=O)N[C@H](C(=O)N[C@@]1(C)CCCC=CCCC[C@@](C)(C(=O)N[C@H](C(=O)N[C@@H](C)C(=O)N[C@@H](CCCCN)C(=O)N[C@@H](CCSC)C(=O)N[C@H](C(N)=O)C(C)C)C(C)C)NC(=O)[C@H]([C@@H](C)CC)NC(=O)[C@H](C)NC(=O)CNC1=O)[C@@H](C)CC)C(C)C)[C@@H](C)O [H-8] (H-IKLSPETKDNLKKVLKGAI[S5]GAI[S5]VAKMV-NH2; staple 20-24)
- Helicity (%) [1]: 60.5%
- IC50 (μM) 293T, toxicity against normal cells [2]: 15.58 ± 0.36 µM
- IC50 (μM) BEAS-2B, toxicity against normal cells [3]: 12.82 ± 0.25 µM
- IC50 (μM) LO-2, toxicity against normal cells [4]: 24.82 ± 0.44 µM

— paper PMC9081086, “Stapling strategy enables improvement of antitumor activity and proteolytic stability of host-defense peptide hymenochirin-1B” (RSC Advances, 2018)
